Measured values as given in ChEMBL document CHEMBL5500396, “Discovery, Multiparametric Optimization, and Solid-State Driven Identification of CHF-6550, a Novel Soft Dual Pharmacology Muscarinic Antagonist and β2 Agonist (MABA) for the Inhaled Treatment of Respiratory Diseases” (J Med Chem, 2024).

Experiments:
[1] = molecular target: Muscarinic acetylcholine receptor M3 (Homo sapiens, UniProt P20309)
Description: Displacement of Scopolamine methyl chloride,[N-methyl-3H] from human muscarinic M3 receptor assessed as inhibition constant incubated for 2 hrs by Microbeta scintillation counter

in vitro [2] = conditions: human, plasma
Description: Stability in human plasma assessed as half-life at 5 uM incubated for 120 mins by LC-MS/MS analysis

in vitro [3] = conditions: rat, plasma
Description: Stability in rat plasma assessed as half-life at 5 uM incubated for 120 mins by LC-MS/MS analysis

in vitro [4] = conditions: human, hepatocytes
Description: Metabolic stability in human hepatocytes assessed as clearance measured per 10^6 cells at 1 uM incubated for 90 mins by LC-MS/MS analysis

[5] = molecular target: Beta-2 adrenergic receptor (Homo sapiens, UniProt P07550)
Sequence of Beta-2 adrenergic receptor (Homo sapiens, UniProt P07550) (P07550 whole entry): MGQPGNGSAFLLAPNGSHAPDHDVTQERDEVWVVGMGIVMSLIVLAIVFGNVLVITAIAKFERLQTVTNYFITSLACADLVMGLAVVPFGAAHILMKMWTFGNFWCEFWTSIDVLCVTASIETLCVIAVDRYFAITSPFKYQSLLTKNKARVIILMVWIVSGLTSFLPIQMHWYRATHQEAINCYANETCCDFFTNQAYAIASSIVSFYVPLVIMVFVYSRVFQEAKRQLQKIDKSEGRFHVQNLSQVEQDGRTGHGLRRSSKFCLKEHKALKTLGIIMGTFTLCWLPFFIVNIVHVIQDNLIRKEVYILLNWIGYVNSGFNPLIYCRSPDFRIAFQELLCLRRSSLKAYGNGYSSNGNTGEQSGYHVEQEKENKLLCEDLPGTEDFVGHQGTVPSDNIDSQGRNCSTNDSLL
Description: Displacement of [125I]-Cyanopindolol from human beta2 adrenoceptor assessed as inhibition constant incubated for 1 hrs by Microbeta scintillation counter

in vitro [6] = conditions: rat, hepatocytes
Description: Metabolic stability in rat hepatocytes assessed as clearance measured per 10^6 cells at 1 uM incubated for 90 mins by LC-MS/MS analysis

in vitro [7] = conditions: guinea pig, plasma
Description: Stability in guinea pig plasma assessed as half-life at 5 uM incubated for 120 mins by LC-MS/MS analysis

[8] = molecular target: Muscarinic acetylcholine receptor M3 (Cavia porcellus, UniProt Q8VH26); assay: Antagonist activity at M3 receptor in male albino Dunkin-Hartley guinea pig trachea assessed as inhibition of carbachol-induced smooth muscle contraction in presence of propranolol
Sequence of Muscarinic acetylcholine receptor M3 (Cavia porcellus, UniProt Q8VH26) (Q8VH26 whole entry): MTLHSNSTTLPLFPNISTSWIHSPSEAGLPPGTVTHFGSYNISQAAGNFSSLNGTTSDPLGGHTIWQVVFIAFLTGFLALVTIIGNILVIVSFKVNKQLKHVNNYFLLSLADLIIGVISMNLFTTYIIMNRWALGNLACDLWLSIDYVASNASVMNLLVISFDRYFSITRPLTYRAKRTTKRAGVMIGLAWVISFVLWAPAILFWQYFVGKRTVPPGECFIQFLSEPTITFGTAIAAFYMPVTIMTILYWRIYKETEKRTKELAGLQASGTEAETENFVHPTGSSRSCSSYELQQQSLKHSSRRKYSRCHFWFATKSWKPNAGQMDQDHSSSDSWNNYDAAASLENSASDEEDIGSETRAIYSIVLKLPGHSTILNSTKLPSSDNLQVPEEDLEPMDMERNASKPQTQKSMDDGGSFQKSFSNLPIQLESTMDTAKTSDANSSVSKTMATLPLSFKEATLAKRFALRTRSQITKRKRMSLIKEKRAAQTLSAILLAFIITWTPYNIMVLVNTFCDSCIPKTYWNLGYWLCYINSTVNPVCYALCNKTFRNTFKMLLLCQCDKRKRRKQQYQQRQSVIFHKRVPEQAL

in vitro [9] = conditions: human, lung S9 fraction
Description: Stability in human lung S9 fraction assessed as half-life at 1 uM incubated for 60 mins by LC-MS/MS analysis

in vitro [10] = conditions: guinea pig, lung S9 fraction
Description: Stability in guinea pig lung S9 fraction assessed as half-life at 1 uM incubated for 60 mins by LC-MS/MS analysis

in vitro [11] = conditions: rat, lung S9 fraction
Description: Stability in rat lung S9 fraction assessed as half-life at 1 uM incubated for 60 mins by LC-MS/MS analysis

[12] = molecular target: Beta-2 adrenergic receptor (Cavia porcellus, UniProt Q8K4Z4); assay: Agonist activity at beta2 adrenoceptor in male albino Dunkin-Hartley guinea pig trachea assessed as inhibition of histamine induced smooth muscle contraction
Sequence of Beta-2 adrenergic receptor (Cavia porcellus, UniProt Q8K4Z4) (Q8K4Z4 whole entry): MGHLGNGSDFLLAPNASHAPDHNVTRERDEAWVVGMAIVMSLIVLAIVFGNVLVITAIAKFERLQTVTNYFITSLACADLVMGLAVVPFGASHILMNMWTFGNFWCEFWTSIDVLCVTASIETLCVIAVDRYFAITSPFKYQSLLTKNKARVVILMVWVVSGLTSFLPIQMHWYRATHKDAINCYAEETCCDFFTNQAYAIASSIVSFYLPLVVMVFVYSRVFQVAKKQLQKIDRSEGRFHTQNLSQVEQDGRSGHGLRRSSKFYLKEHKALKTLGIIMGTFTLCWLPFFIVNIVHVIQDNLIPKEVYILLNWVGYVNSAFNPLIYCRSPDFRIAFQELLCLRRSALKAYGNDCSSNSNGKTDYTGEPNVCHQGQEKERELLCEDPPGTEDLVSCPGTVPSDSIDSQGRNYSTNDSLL

Trachea = assay: Inhibition of carbachol-induced smooth muscle contraction in male albino Dunkin-Hartley guinea pig trachea; conditions: Cavia porcellus, read-out: pIC50 (converted)

Sequence of Muscarinic acetylcholine receptor M3 (Homo sapiens, UniProt P20309) (P20309 whole entry): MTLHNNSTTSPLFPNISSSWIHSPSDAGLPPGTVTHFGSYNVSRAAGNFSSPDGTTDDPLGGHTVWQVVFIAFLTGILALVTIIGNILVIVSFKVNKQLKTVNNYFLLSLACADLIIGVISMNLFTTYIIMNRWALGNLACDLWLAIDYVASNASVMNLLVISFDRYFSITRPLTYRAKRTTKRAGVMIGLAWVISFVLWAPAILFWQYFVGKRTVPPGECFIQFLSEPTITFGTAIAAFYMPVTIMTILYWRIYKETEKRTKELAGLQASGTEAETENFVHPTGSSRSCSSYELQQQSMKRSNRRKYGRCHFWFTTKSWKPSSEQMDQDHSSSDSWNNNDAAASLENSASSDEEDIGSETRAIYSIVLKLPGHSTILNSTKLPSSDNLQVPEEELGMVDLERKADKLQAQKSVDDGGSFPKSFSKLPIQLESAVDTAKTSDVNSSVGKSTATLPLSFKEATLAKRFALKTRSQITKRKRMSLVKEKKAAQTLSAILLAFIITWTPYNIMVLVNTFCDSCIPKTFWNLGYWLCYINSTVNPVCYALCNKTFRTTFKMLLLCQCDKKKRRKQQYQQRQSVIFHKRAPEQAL

Row | SMILES | Ki [1] [nM] | half-life at 2 h, 5 µM (in vitro [2]) [h] | half-life at 2 h, 5 µM (in vitro [3]) [h] | hepatocyte CLint at 1.5 h, 1 µM (in vitro [4]) [µL/min/1e6 cells] | Ki [5] [nM] | hepatocyte CLint at 1.5 h, 1 µM (in vitro [6]) [µL/min/1e6 cells] | half-life at 2 h, 5 µM (in vitro [7]) [h] | IC50 [8] [nM] | IC50 [12] [nM] | other results
1 | COc1cc(C(=O)N2CCC(c3cccc([C@](O)(C(=O)OCC4CCN(Cc5ccccc5)CC4)c4ccccc4)c3)CC2)ccc1CNC[C@H](O)c1ccc(O)c2[nH]c(=O)ccc12 | 0.631 | > 2.5 | > 2.5 | 28 | 0.501 | 29 | 0.583 |  |  | 
2 | O=C(c1ccc(OCc2ccc(CNC[C@H](O)c3ccc(O)c4[nH]c(=O)ccc34)cc2)cc1)N1CC(C(=O)OCC2CCN(Cc3ccccc3)CC2)(c2ccccc2)C1 | 7.94 |  |  |  | 0.251 |  |  |  |  | 
3 | CN1CCC[C@@H](OC(=O)[C@](O)(c2ccccc2)c2cccc(OCCCNC(=O)c3ccc(CNC[C@H](O)c4ccc(O)c5[nH]c(=O)ccc45)nc3)c2)C1.O=CO.O=CO |  | > 2.5 | 0.283 | < 2 | 0.0251 | 20 | > 2.5 |  |  | 
4 | CN1CCC(COC(=O)[C@@](O)(c2ccccc2)c2cccc(-c3ccc(CNC(=O)c4ccc(CNC[C@H](O)c5ccc(O)c6[nH]c(=O)ccc56)cc4)s3)c2)CC1 | 0.158 | > 2.5 | > 2.5 | 3 | 1 | 13 | 0.15 |  |  | 
5 | COc1cc(C(=O)NCCCOc2cccc([C@](O)(C(=O)OCC3CCN(Cc4ccccc4)CC3)c3ccccc3)c2)ccc1CNC[C@H](O)c1ccc(O)c2[nH]c(=O)ccc12 | 0.02 | > 2.5 | 0.6 | 20 | 0.398 | 60 | 0.1 | 0.126 | 0.0126 | half-life at 1 h, 1 µM (in vitro [9]): 4 h; half-life at 1 h, 1 µM (in vitro [10]): 0.483 h; half-life at 1 h, 1 µM (in vitro [11]): 3.95 h
6 | O=C(NCCCNC[C@H](O)c1ccc(O)c2[nH]c(=O)ccc12)c1ccc(COc2cccc([C@](O)(C(=O)OCC3CCN(Cc4ccccc4)CC3)c3ccccc3)c2)cc1 | 0.251 |  |  |  | 0.02 |  |  | 0.2 | 0.2 | IC50 (Trachea): 0.126 nM
7 | O=C(NCCCOc1cccc([C@](O)(C(=O)OCC2CCN(C3CCCC3)CC2)c2ccccc2)c1)c1ccc(CNC[C@H](O)c2ccc(O)c3[nH]c(=O)ccc23)cc1 | 1.58 | > 2.5 | 0.233 | 5 | 0.02 | 51 | 2.32 |  |  | 
8 | Cc1cc(C(=O)NCCCOc2cccc([C@](O)(C(=O)O[C@@H]3CCCN(C)C3)c3ccccc3)c2)c(C)cc1CNC[C@H](O)c1ccc(O)c2[nH]c(=O)ccc12 |  | > 2.5 | 0.5 | 3 | 0.0158 | 49 | 2.37 |  |  | 
9 | CN1CCC[C@@H](OC(=O)[C@](O)(c2ccccc2)c2cccc(OCCCNC(=O)c3ccc(CNC[C@H](O)c4ccc(O)c5[nH]c(=O)ccc45)c(F)c3)c2)C1.O=CO |  | > 2.5 | 0.25 | 6 | 0.0126 | 54 | 1.4 |  |  | 
10 | O=C(NCCCCNC[C@H](O)c1ccc(O)c2[nH]c(=O)ccc12)c1ccc(CNC2(C(=O)O[C@H]3CN4CCC3CC4)CCc3ccccc32)cc1 (mixture of isomers) | 0.126 |  |  |  | 0.501 |  |  | 3.16 | 2.51 | IC50 (Trachea): 1.58 nM
11 | O=C(NCCCCNC[C@H](O)c1ccc(O)c2[nH]c(=O)ccc12)c1ccc(CNC2(C(=O)OCC3CCN(Cc4ccccc4)CC3)CCc3ccccc32)s1 (mixture of isomers; 32) | 3.98 | > 2.5 |  |  | 0.0631 |  |  | 1 | 0.0251 | IC50 (Trachea): 0.0501 nM; half-life at 1 h, 1 µM (in vitro [9]; t1/2): 1.62 h; half-life at 1 h, 1 µM (in vitro [11]; t1/2): 2.35 h; half-life at 2 h, 5 µM (in vitro [3]; t1/2): 0.5 h; hepatocyte CLint at 1.5 h, 1 µM (in vitro [4]; CLH): 13 µL/min/1e6 cells; hepatocyte CLint at 1.5 h, 1 µM (in vitro [6]; CLH): 44 µL/min/1e6 cells
12 | O=C(NCCCCNC[C@H](O)c1ccc(O)c2[nH]c(=O)ccc12)c1ccc(C(=O)NC2(C(=O)O[C@H]3CN4CCC3CC4)CCc3ccccc32)cc1 (single isomer, unassigned) | > 50.1 |  |  |  | 0.398 |  |  |  |  | 
13 | O=C(c1ccc(OCc2ccc(CNC[C@H](O)c3ccc(O)c4[nH]c(=O)ccc34)cc2)cc1)N1CC(C(=O)OC2CN3CCC2CC3)(c2ccccc2)C1 (single isomer, unassigned) | 0.316 |  |  |  | 0.631 |  |  | 1 | 1 | IC50 (Trachea): 1 nM
14 | O=C(NCCCCNC[C@H](O)c1ccc(O)c2[nH]c(=O)ccc12)c1cccc(C(=O)NC2(C(=O)O[C@H]3CN4CCC3CC4)CCc3ccccc32)c1 (single isomer, unassigned) | 12.6 |  |  |  | 1.58 |  |  |  |  | 
